In US5916872A, “Cyclic peptides having broad spectrum antimicrobial activity” (IntraBiotics Pharmaceuticals, Inc., priority 1996, dated 1999):
Converted amounts (≈) assume the structure as drawn. Positions of bridges follow the written chain, without caps; N, C: chain ends. Residues, ends and D or L forms follow the SMILES beside them.

How the values were obtained:
Type in all cases: cell-based
[1] = test system: MRSA (methicillin resistant Staphylococcus aureus); experiment: Modified NCCLS minimum inhibitory concentration (MIC) assay; conditions: Table 4
Excerpt: (§1) Microorganisms: Escherichia coli ML-35p and vancomycin-resistant Enterococcus faecium (VRE) were obtained from Dr. Robert Lehrer (UCLA, see also, Lehrer et al., 1988, J. Immunol. Methods 108:153) and Dr. Gary Schoolnik (Stanford), respectively. Pseudomonas aeruginosa (ATCC 9027), Candida albicans (ATCC 1023), and methicillin resistant Staphylococcus aureus (ATCC 33591) were obtained from the American Type Culture Collection, Rockville, Md.
(§2) 8.3 Modified NCCLS Minimum Inhibitory Concentration (MIC) Assay
(§3) The National Committee for Clinical Standards (NCCLS) requires that test compounds be prepared as stock solutions in Meuller-Hinton Broth ("MHB") at 512 μg/mL. The stock solutions are serially diluted (two-fold) in medium and each serial dilution added 1:1 to medium containing 1×10^6 CFU/mL bacteria (National Committee on Clinical Laboratory Standards, December 1994, "Performance Standards for Antimicrobial Susceptibility Testing," NCCLS Document M100-S5 Vol. 14, No. 16; Methods for Dilution Antimicrobial Susceptibility Test for Bacteria that Grow Aerobically, 3d Ed., Approved Standard M7-A3, National Committee for Clinical Standards, Villanova, Pa.).
(§4) Thus, following the NCCLS protocol would result in serial two-fold dilutions containing less peptide than calculated, yielding erroneously high MIC values.
(§5) To overcome this problem, the following modified NCCLS assay is the preferred method for determining MICs of the cyclic peptides of the invention.
(§6) Preparation of MIC assay plates:
(§7) 1. Prepare a fresh overnight culture of test organism in Meuller-Hinton broth (MHB; Becton-Dickinson, Cockysville, Md., BB2 #11443).
(§8) 2. Dilute the culture to approximately 4×10^5 CFUs/mL with fresh MHB and dispense 100 μL aliquots into each well of a sterile 96-well microtiter plate.
(§9) 3. From the peptide stock solution, prepare serial two-fold dilutions (from 1280 μg/mL to 0.625 μg/mL) using acetic acid (0.01%) as a diluent, or, for peptide concentrations lower than 50 μg/mL, sodium acetate (10 mM, pH 5) containing Human Serum Albumin (HSA; 0.1% w/v) as a diluent.
(§10) 4. Dispense triplicate aliquots (11 μL) of each serial dilution into the wells of the microtiter plate.
(§11) 5. Incubate the plate for 16-18 hours, without aeration, at 37° C. (bacteria) or 30° C. (yeast).
(§12) 6. Examine the plates and evaluate each well for turbidity (cell growth). Often, MRSA will settle out and form a pellet at the bottom of the well. MRSA can be evaluated by placing the microtiter plate on a stand and examining the bottom of the well using a tilted mirror.
(§13) 7. The minimum inhibitory concentration (MIC) is defined as the lowest peptide concentration that inhibits all visible growth. If the MIC values for each of the triplicate samples differ, the MIC is obtained by averaging the results of the three samples. […]

Pseudomonas aeruginosa = experiment: as above; conditions: Table 4; Psa is Pseudomonas aeruginosa
Excerpt: as §1, §2, §3, §4, §5, §6, §7, §8, §9, §10, §11, §12, §13

[2] = test system: MRSA (methicillin resistant Staphylococcus aureus); experiment: Kinetic bactericidal assay; conditions: 2 μg/mL peptide, from an initial value of 3.3 × 10^5 CFUs
Excerpt: as §1
8.4 Kinetic Bactericidal Assay
The following assay is used to determine the rate at which a cyclic peptide kills a target microorganism, as well as to determine if a cyclic peptide is bactericidal or bacteriostatic.
1. Dispense 200 μL of log-phase cells in LTM (4×10^5 CFUs/mL) into each well of a 96-well microtiter plate solution.
2. At time T=0 minutes, add 22 μL of 1280 μg/mL peptide to well A1 and mix by triturating 3 times.
3. Wait 30 seconds and add 22 μL of a second concentration of peptide the to the next well (A2) and mix by triturating 3 times.
4. Repeat the process, staggering each peptide addition by 30 seconds, until all concentrations of peptide have been added. Typically, 4-fold serial dilutions of stock peptide (i.e., 1280, 320, 80, 20 and 5 μg/mL peptide diluted 1:10 into each well) produces good comparative kill curves. Add 22 μL of 0.01% acetic acid to one well as a control.
5. At time T=15 minutes, mix well A1 by triturating 3 times and transfer 20 μL to an empty sterile petri dish (100 mm×15 mm).
6. Quickly add 20 mL of tempered (50° C.) TSA and gently swirl plate to mix.
7. Repeat steps 5-6 until all peptide concentrations have been plated.
8. For the control well, dilute the sample 1:100 with LTM and plate 50 μL of the dilution to obtain an accurate determinations of CFUs.
9. After the agar has solidified, invert the plates and incubate at 37° C. (bacteria) 30° C. (yeast) for 18-24 hours.
10. Repeat steps 5-9 for all peptide concentrations and control samples at times T=30, 60, 120, and 240 minutes.
11. Count the number of CFUs per plate and estimate the reduction in CFUs for each peptide concentration. In order to assess an effect using this assay, the peptide must reduce the CFUs by at least one log (i.e., at least 800 CFUs per plate). Although such numbers are higher than recommended for accuracy (30-300 CFUs/plate), log-order changes in recoverable CFUs indicate significant bacteriocidal efficacy.
12. To obtain comparative kill curves, plot the log of fractional survival versus peptide concentration.

| Molecule | MIC Values MRSA [1] | MIC Values Psa (Pseudomonas aeruginosa) | MRSA Kill Kinetics 15 min [2] | MRSA Kill Kinetics 120 min [2] |
| --- | --- | --- | --- | --- |
| CC(C)C[C@@H]1NC(=O)[C@H](CCCNC(=N)N)NC(=O)CNC(=O)CNC(=O)[C@H](CCCNC(=N)N)NC(=O)[C@H](CCCNC(=N)N)NC(=O)CNC(=O)[C@H](C(C)C)NC(=O)[C@@H]2CSSC[C@H](NC1=O)C(=O)N[C@@H](Cc1ccc(O)cc1)C(=O)N[C@H]1CSSC[C@H](NC(=O)[C@H](Cc3ccccc3)NC(=O)[C@H](CCCNC(=N)N)NC(=O)[C@H](CCCNC(=N)N)NC(=O)[C@H](CCCNC(=N)N)NC1=O)C(=O)N[C@@H](C(C)C)C(=O)N2 [cyclo(CYCRRRFCVCVGRRGGRL)] (cyclo(GGRLCYCRRRFCVCVGRR); disulfide 5-14, 7-12) | 5.33 µg/mL (≈ 2.49 µM) | 8 µg/mL (≈ 3.74 µM) | 1.2 log reduction | 1.17 log reduction |
| CC(C)C[C@@H]1NC(=O)[C@H](CCCNC(=N)N)NC(=O)[C@H](C(C)C)NC(=O)[C@@H]2CSSC[C@H](NC1=O)C(=O)N[C@@H](Cc1ccc(O)cc1)C(=O)N[C@H]1CSSC[C@H](NC(=O)[C@H](Cc3ccccc3)NC(=O)[C@H](CCCNC(=N)N)NC(=O)[C@H](CCCNC(=N)N)NC(=O)[C@H](CCCNC(=N)N)NC1=O)C(=O)N[C@@H](C(C)C)C(=O)N2 [cyclo(CYCRRRFCVCVRL)] (cyclo(CRRRFCVCVRLCY); disulfide 1-6, 8-12) | 16 µg/mL (≈ 9.67 µM) | 2.67 µg/mL (≈ 1.61 µM) | – | – |
| CC(C)C[C@@H]1NC(=O)[C@H](Cc2c[nH]c3ccccc23)NC(=O)[C@H](C(C)C)NC(=O)[C@@H]2CSSC[C@H](NC1=O)C(=O)N[C@@H](Cc1ccc(O)cc1)C(=O)N[C@H]1CSSC[C@H](NC(=O)[C@H](Cc3ccccc3)NC(=O)[C@H](CCCNC(=N)N)NC(=O)[C@H](CCCNC(=N)N)NC(=O)[C@H](CCCNC(=N)N)NC1=O)C(=O)N[C@@H](C(C)C)C(=O)N2 [cyclo(CYCRRRFCVCVWL)] (cyclo(CRRRFCVCVWLCY); disulfide 1-6, 8-12) | 4 µg/mL (≈ 2.37 µM) | > 32 µg/mL | 2.65 log reduction | 2.18 log reduction |
| CC(C)[C@@H]1NC(=O)[C@@H]2CSSC[C@H](NC(=O)[C@H](Cc3ccc(O)cc3)NC(=O)[C@H](Cc3c[nH]c4ccccc34)NC1=O)C(=O)N[C@@H](Cc1ccc(O)cc1)C(=O)N[C@H]1CSSC[C@H](NC(=O)[C@H](Cc3ccccc3)NC(=O)[C@H](CCCNC(=N)N)NC(=O)[C@H](CCCNC(=N)N)NC(=O)[C@H](CCCNC(=N)N)NC1=O)C(=O)N[C@@H](C(C)C)C(=O)N2 [cyco(CYCRRRFCVCVWY), cyclo(CYCRRRFCVCVWY)] (cyclo(CRRRFCVCVWYCY); disulfide 1-6, 8-12) | 8 µg/mL (≈ 4.61 µM) | 32 µg/mL (≈ 18.4 µM) | – | – |
| RGGRLCYCRRRFCVCVGR | 4 µg/mL | 0.5 µg/mL | – | – |
| RLCYCRRRFCVCV | 10.7 µg/mL | 2 µg/mL | – | – |
| RLCYCRRRFCVCVV [RLCYCRRRFCVCVV.dagger.] | 2 µg/mL | 4 µg/mL | – | – |
| WLCYCRRRFCVCV | 32 µg/mL | 13 µg/mL | – | – |
| WLCYCRRRFCVCV [WLCYCRRRFCVCV.dagger.] | 3.33 µg/mL | > 32 µg/mL | 2.12 log reduction | 2.89 log reduction |
| WLCYCRRRFCVCVGR | 32 µg/mL | 32 µg/mL | < 0.46 log reduction | < 0.46 log reduction |
| WLCYCRRRFCVCVGR [WLCYCRRRFCVCVGR.dagger.] | – | – | 1.79 log reduction | 2.26 log reduction |
| WYCYCRRRFCVCV | 43 µg/mL | 32 µg/mL | – | – |
